Residues, ends and D or L forms follow the SMILES beside them. *: point of attachment. X1 = O=C(OCCC(F)(F)C(F)(F)C(F)(F)C(F)(F)C(F)(F)C(F)(F)F)c1ccc(C=NN*)cc1; FITC = O=C1OC2(c3ccc(O)cc3Oc3cc(O)ccc32)c2ccc(NC(=S)*)cc21; NHNH2 = NN*
How the values were obtained:
143B cells [1] = experiment: LDH release assay; assay type: cell-based, human; settings: varying doses, 24 h, n = 3
Protocol: For the LDH assay, different concentrations of peptides were added to 143B cells as described above. The LDH released from the cells was measured by the manufacturer's protocol (Beyotime) after 24 h of incubation. Briefly, a new plate was used to transfer the solution of each well and treat it with lysis buffer at 37 °C for another 1 h. Each well was then incubated with the LDH working solution for 30 min. LDH activity was measured at 490 nm. Negative control cells were non‐treated, while positive control cells were treated with lysis buffer for 1 h directly. All samples were tested in triplicate.

mouse red blood cell = experiment: Hemolysis of red blood cell suspension; assay type: cell-based; settings: 2% mouse red blood cell suspension, different concentrations, 37 °C, 2 h, 1% Triton X‐100 positive control, n = 3
Protocol: Figure 3 Bioactivity of fluorous NBD nanoparticles. A) Schematic illustration of the NBD peptide inhibiting the NF‐κB pathway. B) WB analysis of p65, IκB, and phosphorylated p65 and IκB, respectively in BMM cells treated with RANKL for 2 h and then further incubated with different peptides (25 µM) for 24 h. C) Representative images of TRAP staining in BMM cells treated with PBS, NBD, NBD‐T, and NBD‐F respectively for osteoclast differentiation. The concentration of peptides was 25 µM. D) Quantification of the number of TRAP‐positive multinucleated osteoclasts (≥ 3 nuclei) based on the images in C). n = 5. Cell viability E) and LDH release F) of 143B cells exposed for 24 h to varying doses of NBD, NBD‐T, and NBD‐F, respectively. n = 3. G) Apoptosis analysis of 143B cells stained with FITC‐annexin V and propidium iodide (PI) for 24 h following treatment with NBD, NBD‐T, and NBD‐F, respectively. H) Images of 2% mouse red blood cell suspension incubated with different concentrations of NBD‐F or NBD‐T at 37 °C for 2 h. Triton X‐100 at 1% (Tx‐100) was used as a positive control. PBS was used as a negative control. […] Relative hemolysis was tested as [(As‐An)/(Ap‐An)] × 100%, where As, Ap, and An are the UV absorbances of the sample, positive control, and negative control, respectively (n = 3). *p < 0.05, **p < 0.01, ***p < 0.001, and ****p < 0.0001. […]

143B cells [2] = experiment: Intracellular peptide delivery, confocal microscopy and flow cytometry; assay type: cell-based, human
Protocol: 10 µM of ^FINBD, ^FINBD‐F, or ^FINBD‐T was added to confocal dishes (diameter: 35 mm) when the 143B cells reached 90% confluence. After a 6 h incubation, the cells were rinsed with trypan blue and PBS, followed by imaging using a LSCM.
For flow cytometry analysis, the peptide ^FINBD, ^FINBD‐F, or ^FINBD‐T was added to 143B cells, following the aforementioned protocols. Subsequently, cells were digested using 0.25% trypsin, resuspended in PBS, and subjected to quantitative analysis of delivery efficiency using flow cytometry (CytoFLEX, BECKMAN, USA).
A control group consisted of ^FINBD‐F treated 143B cells in the absence of inhibitors (37 °C). Finally, LSCM was employed to observe internalized ^FINBD‐F in the treated cells.

CC(C)C[C@H](NC(=O)[C@H](C)NC(=O)[C@@H](N)[C@@H](C)O)C(=O)N[C@@H](CC(=O)O)C(=O)N[C@@H](Cc1c[nH]c2ccccc12)C(=O)N[C@@H](CO)C(=O)N[C@@H](Cc1c[nH]c2ccccc12)C(=O)N[C@@H](CC(C)C)C(=O)N[C@@H](CCC(N)=O)C(=O)N[C@H](C(=O)N[C@@H](CCC(=O)O)C(=O)NN=Cc1ccc(C(=O)OCCC(F)(F)C(F)(F)C(F)(F)C(F)(F)C(F)(F)C(F)(F)F)cc1)[C@@H](C)O [NBD-F] (H-TALDWSWLQTE-X1)
LDH release (143B cells [1]): concentration‐dependent | Relative hemolysis (mouse red blood cell): relatively low hemolytic rate

{FITC}-TALDWSWLQTE-NHNH2 [^FINBD-F, FITC‐labeled NBD peptide after fluorous tag modification]
Efficiency of intracellular delivery (fluorescence intensity) (143B cells [2]; 10 µM NBD, 6 h, confocal microscopy and flow cytometry, n = 3, compared with ^FINBD and ^FINBD‐T): noticeably improved the efficiency of intracellular delivery | Internalization mechanism (143B cells [2]; 1 h pretreatment with EIPA 100 µM, MβCD 10 mM, GEN 700 µM, CPZ 20 µM or 4 °C, then 6 h peptide): mediated through multiple endocytosis pathways | Cellular uptake and endosomal escape (143B cells [2]; confocal, fluorescence dispersed throughout the cells after an hour of incubation): rapid and efficient

From PMC11714165, “Bone‐Targeted Fluoropeptide Nanoparticle Inhibits NF‐κB Signaling to Treat Osteosarcoma and Tumor‐Induced Bone Destruction” (Advanced Science, 2024)
